Measured values from US20070196514A1, “Prostate cancer treatment with glycogen synthase kinase-3beta inhibitors” (priority 2006, published 2007).

What was measured:
[1] = system: HEK293 cells; test: Affymetrix cDNA microarray for LiCl-induced changes; type: cell-based, human; conditions: LiCl treatment, data not shown
Experimental: Androgen-insensitive C4-2 cells and HEK293 cells were used for cDNA-based microarray analysis. After serum starvation for 24 hours, cells were left untreated or treated with LiCl (10 mM) in serum free media for 30 minutes whereas the control cells received PBS in the same media. Then 10% FBS was brought back to both control and LiCl pre-treated cells and incubated for another 6 hours. At the end of treatment, total cellular RNAs were extracted using Trizol-based protocol as described (Liao 2005).
Genechip® arrays (Affymetrix Inc, Santa Clara, Calif.) used herein contain almost 45,000 probe sets representing more than 39,000 transcripts derived from approximately 33,000 well substantial human genes. The in vitro-transcription labeling is conducted using the EnzoBio array high yield RNA transcript labeling kit (Affymetrix). Ten micrograms of total RNAs were used for the first strand cDNA synthesis using the SuperscriptChoice system (Invitrogen).
Genechips were hybridized for 16 hours at 45° C. and 60 rpm in Genechip hybridization oven Model 640. After washing the Genechip, the signal intensity was detected using the Agilent Gene Array scanner.
The most dramatic changes were down-regulation of cdc6, cdc25C, cyclins A and E, as well as up-regulation of CDK inhibitor p21^CIP1. […]

[2] = system: LNCaP cells; test: Western blot of cell cycle-related proteins; type: cell-based, human
Experimental: Western blot was carried out as described previously (Liao 2004, Liao 2003, and Liao 2005). Briefly, cells were pellets and lysed in radio-immunoprecipitation assay (“RIPA”) buffer containing protease inhibitors (Half™ Protease Inhibitor Cocktail Kit, PIERCE, Rockford, Ill.). Proteins were separated on SDS-PAGE gels and transferred to Immuno-Blot™ PVDF membrane (BIO-RAD, Hercules, Calif.). Membranes were blocked in a tris-buffered solution plus Tween 20 (“TBST”) solution with 5% nonfat dry milk and incubated with primary antibodies overnight at 4° C. Immunoreactive signals were detected by horseradish peroxidase-conjugated secondary antibodies (Santa Cruz Biotech., Santa Cruz, Calif.) followed by SuperSingnal® WestFeml® Maximum Sensitivity Substrate (PIERCE).
To verify those alterations at a protein level, two series experiments were conducted using Western blot technique. The first involved a time-course experiment. After serum starvation, LNCaP cells were left untreated or treated as before with LiCl for up to 24 hours. Cells were harvested at 18-24 hours.
Next, a dose-response experiment was performed. Following serum starvation for 24 hours, LNCaP cells were treated with BIO at different doses for another 24 hours. Control cells received the vehicle as treatment.

**Q.** For `[Cl-].[Li+]` [LiCl, Lithium chloride], which “alterations of cell cycle genes (microarray)” value [1] is on record?
**A.** The value was “not observed”.

**Q.** What about the “protein levels of cyclin B, PCNA, pRb, cdc2, cdc42 and GSK-3β (Western blot)” value ([2]; LiCl time-course) of the same compound?
**A.** Its value is “no significant change”.

**Q.** What about the “serum-induced increase of cyclins A and E, cdc6 and cdc25C protein (Western blot)” value ([2]; LiCl time-course up to 24 hours) of the same compound?
**A.** The value was “dramatically suppressed”.

**Q.** And the “protein levels of cyclin D1 (Western blot)” value ([2]; LiCl time-course, vs control)?
**A.** Its value is “slightly higher”.

**Q.** What about the “p21CIP1 protein expression (Western blot)” value ([2]; LiCl time-course, vs untreated control) of the same compound?
**A.** Its value is “increased significantly”.
